Experimental data reported in patent EP3539977B1, “ENZYMES WITH CHLOROGENIC ACID ESTERASE ACTIVITY AND FERULOYL ESTERASE ACTIVITY” (SternEnzym GmbH & Co. KG, priority 2014, dated 2016).
“And” between values parts separate entries of the source, which are not always exact repeats. Equal values may be shown once. Read-outs that look alike come from different tables or passages of the source.

Legend:
UmChlE [1] = biological target: T1, UmChlE (Mycosarcoma maydis, UniProt A0A060S684, P492L); assay: biochemical; format: biochemical, Ustilago maydis; conditions: for Relative esterase activity: 1 h, 37 °C, 50 mM Tris pH 7.5
T1 construct: purification of the chlorogenic acid esterase UmChlE from culture supernatant of U. maydis was accomplished by three complementary separation steps; made in house; host or cells: Ustilago maydis itself (native producer), culture supernatant; Q Sepharose FF, preparative IEF, polyamide column
Protocol: (§1) Chlorogenic acid esterase activity was determined at 37 °C in 50 mM Tris buffer at pH 7.5 using chlorogenic acid and methyl ferulate as standard substrates, unless otherwise stated. The release of the corresponding free acids was analyzed with HPLC-UV. If appropriate, the hydrolysis of other benzoic and cinnamic acid ester derivatives as well as feruloylated saccharides was measured with the same method. After incubation for one hour the reaction was terminated by doubling the reacting volume with acetonitrile. Samples were centrifuged (15 min, 15.000 × g) before injection to the HPLC (Chromolith Performance RP-18e reverse-phase column, 100 × 4.6 mm, Merck, Darmstadt, Germany). […] Substance elution was detected at 232 nm (benzoic and 3-hydroxybenzoic acid), 254 nm (4-hydroxybenzoic and vanillic acid), 275 nm (cinnamic and gallic acid), 306 nm (p-coumaric acid) and 323 nm (ferulic, caffeic, chlorogenic and sinapic acid) using a Shimadzu UV-Vis detector (SPD-10A VP, Shimadzu Deutschland GmbH, Duisburg, Germany). One unit of enzyme activity was defined as the amount of enzyme releasing one µmοl of free acid per minute under the specified conditions. All measurements were performed at least twice.
Enzyme tolerance to different solvents was investigated in the presence of 50 % (v/v) acetone, acetonitrile, diethyl ether, DMF, DMSO, ethanol, isoamyl alcohol, isobutyl alcohol, isopropanol, methanol, n-hexane, n-heptane, tert-butyl methyl ether or toluene, respectively, in 50 mM Tris buffer pH 7.5 containing 0.7 mM substrate. In an additional experiment, 0.84 mM substrate was used. After incubation (60 min, 37 °C, 900 rpm) the mixture was applied for HPLC analysis as described above. […] The effect of high salt concentrations (0.1 - 3 M NaCl) on enzyme activity was investigated, too.
Various metal ions and enzyme inhibitors were examined for their effect on chlorogenic acid esterase activity (Table 2). […] Hg^2+ reacts with thiol groups and can also reduce disulphide bonds (40). […] Table 2 Effect of metal ions, inhibitors and NaCl on UmChIE activity.
Remaining enzyme activity was measured after 1 h incubation with 1mM, or, in a further experiment, 1.95 mM methyl ferulate and different metal ions as well as inhibitors in concentrations listed above (at 37 °C, 50 mM Tris buffer pH 7.5). Numbers in parentheses are the estimates of the standard error. A sample without additive was used for the calculation of relative enzyme activities. ND: activity not detectable.

RsChlE = biological target: T2, RsChlE (Rhizoctonia solani, UniProt A0A1D0BQV8); assay: Substrate specificity of purified RsChlE; format: biochemical; conditions: 1 mM (or 1.95 mM) substrate, 1 h, 30 °C, 50 mM Bis-Tris pH 6.0
T2 sequence (A0A1D0BQV8 39-563): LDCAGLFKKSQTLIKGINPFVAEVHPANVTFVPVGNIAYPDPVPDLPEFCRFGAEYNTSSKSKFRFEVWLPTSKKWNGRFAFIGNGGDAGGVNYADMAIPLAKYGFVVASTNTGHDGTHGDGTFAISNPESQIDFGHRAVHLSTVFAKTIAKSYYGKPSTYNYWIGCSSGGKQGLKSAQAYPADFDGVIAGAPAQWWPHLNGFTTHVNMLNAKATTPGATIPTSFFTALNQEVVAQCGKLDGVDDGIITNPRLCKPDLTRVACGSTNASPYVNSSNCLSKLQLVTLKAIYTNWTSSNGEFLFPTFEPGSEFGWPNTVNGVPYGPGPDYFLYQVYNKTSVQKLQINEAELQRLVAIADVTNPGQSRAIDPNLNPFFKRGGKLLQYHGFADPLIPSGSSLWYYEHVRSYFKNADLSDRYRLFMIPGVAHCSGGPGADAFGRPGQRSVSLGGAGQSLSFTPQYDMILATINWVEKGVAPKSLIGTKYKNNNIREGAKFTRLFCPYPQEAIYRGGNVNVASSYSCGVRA
Protocol: as §1
After purification of the recombinant RsChlE from the culture supernatant of Pichia pastoris with Ni-NTA, the enzyme was biochemically characterized. The experiments were performed like for UmChlE. pH and temperature optimums were analyzed. […] Table 4: Substrate specificity of purified RsChIE.
Purified RsChlE was incubated with 1 mM, or in an alternative experiment, 1.95 mM of different substrates for 1 h (at 30 °C, 50 mM Bis-Tris buffer pH 6.0). […] Numbers in parentheses are the estimates of the standard error.

UmChlE [2] = biological target: T1, UmChlE; format: biochemical, Ustilago maydis; conditions: 1 mM (or 1.95 mM) substrate, 1 h, 37 °C, 50 mM Tris pH 7.5, ND = activity not detectable; for Relative esterase activity: chlorogenic acid = 100 %, standard error in parentheses
Protocol: as §1
Substrate specificity of the UmChlE was determined towards different cinnamate and benzoate esters as well as natural substrates, such as F-A, F-AX and F-AXG, with activity assays as described above. Three mM stock solutions of all substrates were prepared in water.
Purified UmChlE was incubated with 1 mM, or, in a further experiment, 1.95 mM of different substrates for 1 h (at 37 °C, 50 mM Tris buffer pH 7.5). Relative enzyme activities were calculated based on the most preferred substance of the UmChIE: chlorogenic acid which was set to 100 %. Numbers in parentheses are the estimates of the standard error.

[3] = 5 mM additive, 1 mM (or 1.95 mM) methyl ferulate, without additive = 100 %, standard error in parentheses, ND = activity not detectable

T1 sequence (A0A060S684 22-585, stated change not applied): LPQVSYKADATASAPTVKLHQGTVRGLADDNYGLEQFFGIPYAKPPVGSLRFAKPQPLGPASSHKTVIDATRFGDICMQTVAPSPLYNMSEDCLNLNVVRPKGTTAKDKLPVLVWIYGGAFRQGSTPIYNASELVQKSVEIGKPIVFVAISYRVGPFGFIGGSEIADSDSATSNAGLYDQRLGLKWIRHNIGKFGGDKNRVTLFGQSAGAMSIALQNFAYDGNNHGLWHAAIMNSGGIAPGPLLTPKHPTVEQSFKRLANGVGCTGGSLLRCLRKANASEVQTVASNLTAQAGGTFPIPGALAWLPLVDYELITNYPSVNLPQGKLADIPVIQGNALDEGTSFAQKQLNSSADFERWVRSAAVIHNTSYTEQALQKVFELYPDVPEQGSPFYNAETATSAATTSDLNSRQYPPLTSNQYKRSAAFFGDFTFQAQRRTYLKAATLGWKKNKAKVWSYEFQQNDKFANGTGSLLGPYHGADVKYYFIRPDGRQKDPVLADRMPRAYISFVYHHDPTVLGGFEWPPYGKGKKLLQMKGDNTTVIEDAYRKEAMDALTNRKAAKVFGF

## O=S(=O)([O-])[O-].O=S(=O)([O-])[O-].O=S(=O)([O-])[O-].[Al+3].[Al+3] [Al2(SO4)3]
UmChlE [1]; [3]
  Relative esterase activity: 53 (0.12) %
UmChlE [1]; 5 mM additive, 1 mM (or 1.95 mM) methyl ferulate, without additive = 100 %, standard error in parentheses, ND = activity not detectable, listed as Al^3+
  Relative esterase activity: 50 - 76%

## [Ca+2].[Cl-].[Cl-] [CaCl2]
UmChlE [1]; [3]
  Relative esterase activity: 103 (2.76) %

## [Cl-].[Cl-].[Co+2] [CoCl2]
UmChlE [1]; [3]
  Relative esterase activity: 67 (0.11) %
UmChlE [1]; 5 mM additive, 1 mM (or 1.95 mM) methyl ferulate, without additive = 100 %, standard error in parentheses, ND = activity not detectable, listed as Co^2+
  Relative esterase activity: 50 - 76%

## O=[N+]([O-])[O-].O=[N+]([O-])[O-].O=[N+]([O-])[O-].[Cr+3] [Cr(NO3)3]
UmChlE [1]; [3]
  Relative esterase activity: 69 (3.54) %
UmChlE [1]; 5 mM additive, 1 mM (or 1.95 mM) methyl ferulate, without additive = 100 %, standard error in parentheses, ND = activity not detectable, listed as Cr^3+
  Relative esterase activity: 50 - 76%

## [Cl-].[Cs+] [CsCl]
UmChlE [1]; [3]
  Relative esterase activity: 105 (1.21) %

## O=[N+]([O-])[O-].O=[N+]([O-])[O-].[Cu+2] [Cu(NO3)2]
UmChlE [1]; [3]
  Relative esterase activity: 96 (0.53) %

## COc1cc(/C=C/C(=O)OC[C@@H]2OC(O)[C@H](O)[C@H]2O)ccc1O (stereo partly drawn) [F-A, 5-O-trans-feruloyl-L-arabinofuranose]
RsChlE
  Specific activity: 4.48 U/mg
UmChlE [2]
  Specific esterase activity: 2.0 U mg^-1 and 2.06 U mg^-1

## COc1cc(/C=C/C(=O)OC[C@@H]2OC(O)[C@H](O[C@@H]3OC[C@@H](O)[C@H](O)[C@H]3O[C@@H]3O[C@@H](CO)[C@@H](O)[C@@H](O)[C@@H]3O)[C@H]2O)ccc1O (stereo partly drawn) [F-AXG, α-L-galactopyranosyl-(1→2)-β-D-xylopyranosyl-(1→2)-5-O-trans-feruloyl-L-arabinofuranose]
RsChlE
  Specific activity: 3.66 U/mg
UmChlE [2]
  Specific esterase activity: 0.9 U mg^-1 and 0.92 U mg^-1

## [Cl][Fe]([Cl])[Cl] [FeCl3]
UmChlE [1]; [3]
  Relative esterase activity: 66 (0.65) %

## O=S(=O)([O-])[O-].[Fe+2] [FeSO4]
UmChlE [1]; [3]
  Relative esterase activity: 102 (0.50) %

## CC(=O)[O-].CC(=O)[O-].[Hg+2] [HgAc2]
UmChlE [1]; [3]
  Relative esterase activity: complete loss of enzyme activity

## [Cl-].[K+] [KCI]
UmChlE [1]; [3]
  Relative esterase activity: 108 (0.57) %

## [Cl-].[Li+] [LiCI]
UmChlE [1]; [3]
  Relative esterase activity: 106 (1.39) %

## [Cl-].[Cl-].[Mg+2] [MgCl2]
UmChlE [1]; [3]
  Relative esterase activity: 106 (0. 53) %

## O=S(=O)([O-])[O-].[Mn+2] [MnSO4]
UmChlE [1]; [3]
  Relative esterase activity: 90 (0.09) %
UmChlE [1]; 5 mM additive, 1 mM (or 1.95 mM) methyl ferulate, without additive = 100 %, standard error in parentheses, ND = activity not detectable, listed as Mn^2+
  Relative esterase activity: 90%

## [Cl-].[Na+] [NaCl]
UmChlE [1]; 100 mM additive, methyl ferulate
  Relative esterase activity: 105 (0.02) %
UmChlE [1]; 500 mM additive, methyl ferulate
  Relative esterase activity: 121 (0.01) %
UmChlE [1]; 1000 mM additive, methyl ferulate
  Relative esterase activity: 125 (0.02) %
UmChlE [1]; 2000 mM additive, methyl ferulate
  Relative esterase activity: 142 (0.06) %
UmChlE [1]; 3000 mM (3 M) additive, methyl ferulate
  Relative esterase activity: 150% and 150 (0.04) %

## O=S(=O)([O-])[O-].[Ni+2] [NiSO4]
UmChlE [1]; [3]
  Relative esterase activity: 108 (0.87) %

## CCCCCCCCCCCCOS(=O)(=O)O [SDS]
UmChlE [1]; read-out: enzyme activity was inhibited
  inhibition at 5000 µM: 41%

## O=[N+]([O-])[O-].O=[N+]([O-])[O-].[Sr+2] [SrNO3]
UmChlE [1]; [3]
  Relative esterase activity: 104 (0,18) %

## O=S(=O)([O-])[O-].[Zn+2] [ZnSO4]
UmChlE [1]; [3]
  Relative esterase activity: 76 (1.26) %
UmChlE [1]; 5 mM additive, 1 mM (or 1.95 mM) methyl ferulate, without additive = 100 %, standard error in parentheses, ND = activity not detectable, listed as Zn^2+
  Relative esterase activity: 50 - 76%

## CCOC(=O)C=Cc1ccccc1 [ethyl cinnamate]
RsChlE
  Specific activity: 0.91 U/mg

## CCOC(=O)/C=C/c1ccc(O)c(OC)c1 [ethyl ferulate]
RsChlE
  Specific activity: 3.60 U/mg
UmChlE [2]
  Specific esterase activity: 0.78 U mg^-1

## COC(=O)/C=C/c1ccc(O)c(O)c1 [methyl caffeate]
RsChlE
  Specific activity: 4.61 U/mg
UmChlE [2]
  Specific esterase activity: 0.49 U mg^-1

## COC(=O)C=Cc1ccccc1 [methyl cinnamate]
RsChlE
  Specific activity: 2.10 U/mg

## COC(=O)/C=C/c1cc(OC)c(O)c(OC)c1 [methyl sinapate]
UmChlE [2]
  Relative esterase activity: no
UmChlE [2]; listed as MSA
  Relative esterase activity: total loss of activity
